According to ChEMBL document CHEMBL1201862, “PubChem BioAssay data set” (2004):
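A five-concentration, 48-hour dose response in 96-well plates underlies each endpoint, interpolated linearly between surrounding concentrations. GI50 is the concentration that inhibits growth by half.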 The source made the active and inactive calls. No stated cut-off is given here; in the data, active = GI50 up to about 1.1 µM and inactive = higher.

Tests used:
Assay in all cases: inhibition of tumour cell growth, NCI panel, 48 h
HL-60 = tested on: HL-60
MCF7 = tested on: MCF7
HOP-92 = tested on: HOP-92
UACC-62 = tested on: UACC-62
SK-MEL-5 = tested on: SK-MEL-5
SK-MEL-2 = tested on: SK-MEL-2
CAKI-1 = tested on: CAKI-1
Hs-578T = tested on: Hs-578T
HCT-116 = tested on: HCT-116
MDA-MB-435 = tested on: MDA-MB-435
786-0 = tested on: 786-0
RXF 393 = tested on: RXF 393
NCI-H460 = tested on: NCI-H460
UO-31 = tested on: UO-31
U-251 = tested on: U-251
SF-539 = tested on: SF-539
NCI-H522 = tested on: NCI-H522
IGROV-1 = tested on: IGROV-1
A498 = tested on: A498
SN12C = tested on: SN12C
A549 = tested on: A549
SK-OV-3 = tested on: SK-OV-3
SW-620 = tested on: SW-620
MOLT-4 = tested on: MOLT-4
OVCAR-5 = tested on: OVCAR-5
MDA-N = tested on: MDA-N
PC-3 = tested on: PC-3
ACHN = tested on: ACHN
RPMI-8226 = tested on: RPMI-8226
SF-268 = tested on: SF-268
DU-145 = tested on: DU-145
SNB-75 = tested on: SNB-75
K562 = tested on: K562
HCT-15 = tested on: HCT-15
HT-29 = tested on: HT-29
M14 = tested on: M14
MDA-MB-231 = tested on: MDA-MB-231
HOP-62 = tested on: HOP-62
OVCAR-8 = tested on: OVCAR-8
KM12 = tested on: KM12
CCRF-CEM = tested on: CCRF-CEM
OVCAR-3 = tested on: OVCAR-3
OVCAR-4 = tested on: OVCAR-4
COLO 205 = tested on: COLO 205
Malme-3M = tested on: Malme-3M
NCI/ADR-RES = tested on: NCI/ADR-RES
SR = tested on: SR
NCI-H23 = tested on: NCI-H23
EKVX = tested on: EKVX
HCC 2998 = tested on: HCC 2998
UACC-257 = tested on: UACC-257
TK-10 = tested on: TK-10
SNB-19 = tested on: SNB-19
NCI-H226 = tested on: NCI-H226
BT-549 = tested on: BT-549
LOX IMVI = tested on: LOX IMVI
SF-295 = tested on: SF-295
SK-MEL-28 = tested on: SK-MEL-28

In the case of C/C(=C(/C)c1ccc(O)cc1)c1ccc(O)cc1 [DIMETHYLSTILBESTROL], the GI50 (HL-60) was 41.4 µM (inactive), the GI50 (MCF7) was 39.5 µM (inactive) and the GI50 (HOP-92) was 27.4 µM (inactive). The GI50 (UACC-62) was 23.7 µM (inactive), the GI50 (SK-MEL-5) was 19.5 µM (inactive) and the GI50 (SK-MEL-2) was 10 µM (inactive). The GI50 (CAKI-1) was 37 µM (inactive), the GI50 (Hs-578T) was 24.5 µM (inactive) and the GI50 (HCT-116) was 83.2 µM (inactive). For the same molecule, the GI50 (MDA-MB-435) was 37.9 µM (inactive), the GI50 (786-0) was 61.9 µM (inactive) and the GI50 (RXF 393) was 56.8 µM (inactive). The GI50 (NCI-H460) was 49.8 µM (inactive), the GI50 (UO-31) was 70.8 µM (inactive) and the GI50 (U-251) was 67.3 µM (inactive). The GI50 (SF-539) was 32.3 µM (inactive), the GI50 (NCI-H522) was > 100 µM (inactive) and the GI50 (IGROV-1) was > 100 µM (inactive). For the same molecule, the GI50 (A498) was 54.6 µM (inactive), the GI50 (SN12C) was 58.6 µM (inactive) and the GI50 (A549) was 71.3 µM (inactive). For the same molecule, the GI50 (SK-OV-3) was > 100 µM (inactive), the GI50 (SW-620) was > 100 µM (inactive) and the GI50 (MOLT-4) was 45.5 µM (inactive). The GI50 (OVCAR-5) was > 100 µM (inactive), the GI50 (MDA-N) was 31.8 µM (inactive) and the GI50 (PC-3) was 41.3 µM (inactive). For the same molecule, the GI50 (ACHN) was 28.8 µM (inactive), the GI50 (RPMI-8226) was 34.9 µM (inactive) and the GI50 (SF-268) was > 100 µM (inactive). The GI50 (DU-145) was 87.3 µM (inactive), the GI50 (SNB-75) was 39.2 µM (inactive) and the GI50 (K562) was 46 µM (inactive). The GI50 (HCT-15) was 61.1 µM, the GI50 (HT-29) was 48.8 µM (inactive) and the GI50 (M14) was 45.3 µM (inactive). The GI50 (MDA-MB-231) was > 100 µM (inactive), the GI50 (HOP-62) was 94 µM (inactive) and the GI50 (OVCAR-8) was 36.1 µM (inactive). For the same molecule, the GI50 (KM12) was 62.7 µM (inactive), the GI50 (CCRF-CEM) was 42.3 µM (inactive) and the GI50 (OVCAR-3) was 46.6 µM (inactive). For the same molecule, the GI50 (OVCAR-4) was > 10 µM (inactive), the GI50 (COLO 205) was > 100 µM (inactive) and the GI50 (Malme-3M) was 60.8 µM (inactive). For the same molecule, the GI50 (NCI/ADR-RES) was 45.5 µM (inactive), the GI50 (SR) was 40.1 µM (inactive) and the GI50 (NCI-H23) was 43.6 µM (inactive). For the same molecule, the GI50 (EKVX) was 8.95 µM (inactive), the GI50 (HCC 2998) was > 100 µM (inactive) and the GI50 (UACC-257) was 43.4 µM (inactive). For the same molecule, the GI50 (TK-10) was 89.5 µM (inactive), the GI50 (SNB-19) was > 100 µM (inactive) and the GI50 (NCI-H226) was 36.7 µM (inactive). For the same molecule, the GI50 (BT-549) was 12.6 µM (inactive).

In the case of O=C(CN1CCOCC1)c1ccc2c(c1)oc(=O)n2CCN1CCCCC1, the GI50 (HL-60) was > 100 µM (inactive), the GI50 (MCF7) was > 100 µM (inactive) and the GI50 (UACC-62) was > 100 µM (inactive). For the same molecule, the GI50 (LOX IMVI) was > 100 µM (inactive), the GI50 (SK-MEL-5) was > 100 µM (inactive) and the GI50 (SK-MEL-2) was > 100 µM (inactive). For the same molecule, the GI50 (CAKI-1) was > 100 µM (inactive), the GI50 (Hs-578T) was 7.8 µM (inactive) and the GI50 (HCT-116) was > 100 µM (inactive). For the same molecule, the GI50 (MDA-MB-435) was > 100 µM (inactive), the GI50 (786-0) was > 100 µM (inactive) and the GI50 (RXF 393) was > 100 µM (inactive). The GI50 (NCI-H460) was > 100 µM (inactive), the GI50 (UO-31) was > 100 µM (inactive) and the GI50 (U-251) was > 100 µM (inactive). For the same molecule, the GI50 (SF-295) was > 100 µM (inactive), the GI50 (SF-539) was > 100 µM (inactive) and the GI50 (IGROV-1) was > 100 µM (inactive). For the same molecule, the GI50 (A498) was > 100 µM (inactive), the GI50 (SN12C) was > 100 µM (inactive) and the GI50 (SK-OV-3) was > 100 µM (inactive). For the same molecule, the GI50 (SW-620) was > 100 µM (inactive), the GI50 (SK-MEL-28) was > 100 µM (inactive) and the GI50 (MOLT-4) was > 100 µM (inactive). For the same molecule, the GI50 (OVCAR-5) was > 100 µM (inactive), the GI50 (MDA-N) was > 100 µM (inactive) and the GI50 (PC-3) was > 100 µM (inactive). For the same molecule, the GI50 (ACHN) was > 100 µM (inactive), the GI50 (RPMI-8226) was > 100 µM (inactive) and the GI50 (SF-268) was 48.3 µM (inactive). For the same molecule, the GI50 (DU-145) was > 100 µM (inactive), the GI50 (SNB-75) was 0.179 µM (active) and the GI50 (K562) was > 100 µM (inactive). For the same molecule, the GI50 (HCT-15) was greater than 100 µM, the GI50 (HT-29) was > 100 µM (inactive) and the GI50 (M14) was > 100 µM (inactive). The GI50 (MDA-MB-231) was > 100 µM (inactive), the GI50 (HOP-62) was > 100 µM (inactive) and the GI50 (OVCAR-8) was > 100 µM (inactive). For the same molecule, the GI50 (KM12) was > 100 µM (inactive), the GI50 (CCRF-CEM) was > 100 µM (inactive) and the GI50 (OVCAR-3) was > 100 µM (inactive). For the same molecule, the GI50 (COLO 205) was > 100 µM (inactive), the GI50 (Malme-3M) was > 100 µM (inactive) and the GI50 (NCI/ADR-RES) was > 100 µM (inactive). The GI50 (SR) was > 100 µM (inactive), the GI50 (NCI-H23) was > 100 µM (inactive) and the GI50 (EKVX) was 82.2 µM (inactive). For the same molecule, the GI50 (UACC-257) was > 100 µM (inactive), the GI50 (TK-10) was > 100 µM (inactive) and the GI50 (SNB-19) was > 100 µM (inactive). The GI50 (NCI-H226) was > 100 µM (inactive) and the GI50 (BT-549) was > 100 µM (inactive).
